{
  "source": "patent US20120065165A1",
  "about": "“COMPOSITIONS AND METHODS OF TREATING ENDOTHELIAL DISORDERS” (ARGINETIX, INC, priority 2008, published 2012)",
  "key": {"old rat aortic segments": {"system": "old rat aortic segments", "test": "NO production in aortic rings (slope of DAF fluorescence)", "assay_type": "cell-based", "conditions": "old/aged rat aorta", "excerpt": "ABH improves endothelial function by inhibiting arginase and consequently increasing NO production (by increasing L-arginine availability to eNOS) and decreasing levels of ROS (by preventing eNOS uncoupling). […] Aortic rings were dissected and pinned down, endothelial side up, on a silastic coated culture dish, and then exposed to either the NO-sensitive dye DAF, or the O2-sensitive dye DHE. Since the interaction of NO or ROS with its specific dye is cumulative, the rate of production of each species is proportional to the slope of the fluorescence emitted from the dye as measured using epifluorescence microscopy. […] SNP endothelial-independent NO donor was included as a control (Santhanam et al 2007)."}, "[1]": {"system": "lambs with chemically induced PAH", "conditions": "cited from earlier work"}, "patients with PAH [2]": {"system": "patients with PAH", "conditions": "three times daily; cited from earlier work"}, "patients with PAH [3]": {"system": "patients with PAH", "conditions": "oral administration; cited from earlier work"}, "rat aortic tissues": {"system": "rat aortic tissues", "test": "cGMP levels in aortic rings of old rats incubated with sildenafil and ABH (cGMP EIA)", "assay_type": "cell-based", "conditions": "ABH 0 nM", "experimental": "The source of tissue was old (22 to 24 months) male Fischer 344 rats purchased from National Institute for Aging (NIA). The rats were anesthetized in an isoflurane chamber and euthanized. The entire length of the aorta (thoracic, arch, abdominal) were dissected out and cleaned free of connective tissue. These aorta were then sectioned into ˜3 mm long rings. Samples were collected from 2 rats and pooled. […] Rings were incubated in varying concentrations of sildenafil (0-2000 nM) and ABH (0-500 nM) prepared in 200 μL Krebs buffer for 10 min at 37° C. The rings were then snap frozen in liquid nitrogen following treatment. The next day, samples were homogenized in 200 μL 6% TCA buffer (prepared by adding TCA to DI water) at 4° C. for extraction of cyclic nucleotides. The samples were then centrifuged at 12,000 rpm for 5 min at 4° C. Protein pellets were re-dissolved in PBS to determine protein concentration, and supernatant was reserved for cGMP detection. […] ABH (MW 211.45): A stock solution of ABH at a concentration of 100 mM was prepared by dissolving 21.1 mg of ABH into 1 ml Krebs solution. This was used to prepare 5 ml of a 1 mM stock. 200 μL of the 1 mM solution were dispensed into column 12 of a 96-well plate. Six 2× dilutions were prepared in the plate. 200 μL Krebs were dispensed in column 5 to get a concentration range of 0-1000 nM (2× of final concentration). Sildenafil (MW 474.5): A stock solution of sildenafil at a concentartion of 100 mM was prepared by dissolving 47.4 mg of sildenafil into 1 ml Krebs solution; 5 ml of 2 mM stock was prepared from this. Row A received 200 μL of Krebs buffer (0 mM sildenafil), mixed well, and adjusted to a final volume of 200 μL. Next, 200 μL of the 2 mM sildenafil stock was dispensed into row H of the 96 well plate already containing the ABH dilutions ([…]). Six 2× dilutions were prepared from this to get the final concentration ranges for the two drugs. cGMP levels were determined with a cGMP kit (Amersham cGMP Enzyme immunoassay Biotrak (EIA) System Cat #RPN226) and run in accordance with the manufacture's recommendations. The assay uses a competitive fluorescent immunoassay format to measure levels of cGMP. It combines the use of a peroxidase-labelled cGMP conjugate, a specific antiserum which can be immobilized on to pre-coated microplates, and a one-pot stabilized substrate solution. […] In the absence of cGMP most of the HRP conjugate is bound to the antibody and yields a high fluorescence. Increasing concentrations of cGMP competitively decreases the binding of the HRP conjugate, decreasing the measured fluorescence (HRP activity). […] The plate was then incubated for 2 hrs at room temperature with shaking after which it is washed and the fluorescent substrate is added. The plate was incubated for an additional 10 min and then read on a Molecular Devices Gemini EM plate reader set at Ex 530 nm, Em 590 nm (endpoint mode). The signal is reported to be stable for up to 24 hrs, but was generally read within 2 hrs. […] These values were calculated based on the resultant ratio of fluorescence reading of sample divided by fluorescense reading with no cGMP (pmols/mg). For each concentration combination of sildenafil and ABH administered to cells, absorbance (OD at 450 nm) was measured. From these values, the absorbance adjusted for non-specific binding (NSB) for each sample (OD-NSB(B)) was determined from the absorbance (B) divided by the absorbance without cGMP (Bo). Using this value and the standard curve for cGMP, the log (fmol) is found and, after adjusting for the quantity of protein, the pmols of cGMP/mg protein is calculated."}, "[4]": {"system": "hypoxia-induced pulmonary hypertension", "conditions": "cited from earlier work"}, "arginase [5]": {"system": "arginase", "conditions": "internal anal sphincter; cited from earlier work"}, "PDE1": {"system": "PDE1", "conditions": "pulmonary vascular tissue; cited from earlier work"}, "[6]": {"conditions": "in vivo; cited from earlier work"}, "arginase [7]": {"system": "arginase", "conditions": "cited from earlier work"}},
  "note": "Like-named read-outs stand apart in the source and are kept apart here.",
  "data": [
    {"compound": "N[C@@H](CSCCB(O)O)C(=O)O", "note": "[BEC, S-(2-Boronoethyl)-L-cysteine]", "values": [
      {"measurement": "NO production (slope of the DAF fluorescence)", "setting": "old rat aortic segments", "result": "augments NO production"}
    ]},
    {"compound": "CCCOc1ccccc1-c1nc2nn[nH]c2c(=O)[nH]1", "note": "[Zaprinast]", "values": [
      {"measurement": "pulmonary vasodilation induced by inhaled NO", "setting": "[1]; lambs with chemically induced PAH", "result": "potentiates and markedly prolongs"}
    ]},
    {"compound": "CCCc1nn(C)c2c(=O)[nH]c(-c3cc(S(=O)(=O)N4CCN(C)CC4)ccc3OCC)nc12", "note": "[sildenafil]", "values": [
      {"measurement": "WHO functional class", "setting": "patients with PAH [2]", "result": "improved"},
      {"measurement": "exercise capacity (6-minute walk test)", "setting": "patients with PAH [2]", "result": "improved"},
      {"measurement": "pulmonary arterial pressure", "setting": "patients with PAH [2]", "result": "decreased"},
      {"measurement": "pulmonary vascular resistance", "setting": "patients with PAH [2]", "result": "decreased"},
      {"measurement": "pulmonary vasodilation", "setting": "patients with PAH [3]", "result": "selective pulmonary vasodilation"},
      {"measurement": "Theoretical response T(x,y) based on an additive effect", "setting": "rat aortic tissues; sildenafil 31 nM", "result": 0.27, "unit": "pmol/mg"},
      {"measurement": "pmols of cGMP/mg protein produced P(x,y)", "setting": "rat aortic tissues; sildenafil 31 nM", "result": 0.27, "unit": "pmols/mg"},
      {"measurement": "Theoretical response T(x,y) based on an additive effect", "setting": "rat aortic tissues; sildenafil 125 nM", "result": 2.56, "unit": "pmol/mg"},
      {"measurement": "pmols of cGMP/mg protein produced P(x,y)", "setting": "rat aortic tissues; sildenafil 125 nM", "result": 2.56, "unit": "pmols/mg"},
      {"measurement": "Theoretical response T(x,y) based on an additive effect", "setting": "rat aortic tissues; sildenafil 500 nM", "result": 0.88, "unit": "pmol/mg"},
      {"measurement": "pmols of cGMP/mg protein produced P(x,y)", "setting": "rat aortic tissues; sildenafil 500 nM", "result": 0.88, "unit": "pmols/mg"},
      {"measurement": "Theoretical response T(x,y) based on an additive effect", "setting": "rat aortic tissues; sildenafil 2000 nM", "result": 0.80, "unit": "pmol/mg"},
      {"measurement": "pmols of cGMP/mg protein produced P(x,y)", "setting": "rat aortic tissues; sildenafil 2000 nM", "result": 0.80, "unit": "pmols/mg"},
      {"measurement": "hypoxia-induced pulmonary hypertension", "setting": "[4]; mice lacking NOS3 (eNOS)", "result": "little effect"},
      {"measurement": "hypoxia-induced pulmonary hypertension", "setting": "[4]; mouse, in vivo", "result": "substantially ablated"},
      {"measurement": "pulmonary vasodilator response to inhaled NO", "setting": "[1]; aerosolized form, lambs with PAH", "result": "augmented"}
    ]},
    {"compound": "N=C(NO)NCCC[C@H](N)C(=O)O", "note": "[L-HO-Arg, Nω-hydroxy-L-arginine]", "values": [
      {"measurement": "NANC relaxation suppressed by excess arginase", "setting": "arginase [5]", "result": "restored"}
    ]},
    {"compound": "CCOC(=O)C1=C[C@]2(CC)CCCN3CCc4c(n1c1ccccc41)[C@@H]32", "note": "[vinpocetine]", "values": [
      {"measurement": "NO-stimulated dilation", "setting": "PDE1", "result": "enhances"},
      {"measurement": "basal cGMP or cAMP", "setting": "PDE1", "result": "little effect"}
    ]},
    {"compound": "N=C(NO)NCC[C@H](N)C(=O)O", "note": "[nor-NOHA, N^ω-hydroxy-nor-L-arginine]", "values": [
      {"measurement": "bioavailability", "setting": "[6]", "result": "poor bioavailability"},
      {"measurement": "in vivo inhibition of serum arginase", "setting": "arginase [7]", "result": "inhibition of serum arginase"}
    ]}
  ]
}
